# Target: T1, histamine H4 receptor (Homo sapiens, UniProt Q9H3N8)
# T1 construct: expressed in transfected cells; host or cells: HEK293SFM cells (membrane preparation)
# Assay: Inhibition of histamine H4 receptor (Table A1; H4 membrane binding assay)
# Conditions: not given
# Procedure: Recombinant HEK293SFM cells expressing human H1, H2, H3, H4 or mouse H4 were harvested (Packard Filtermate Harvester) in ice-cold Tris-HCl, (50 mM, pH 7.5, Sigma) with protease inhibitors (Roche) and homogenized with a Polytron homogenizer. The homogenate was centrifuged for 5 minutes at 1000 g to remove nuclei and unbroken cells. The supernatant was centrifuged at 50000 g for 30 minutes, and the resulting pellet was re-suspended in ice-cold Tris-HCl (50 mM, pH 7.5). […] Nonspecific binding was determined by inclusion of 1000× unlabeled ligands. The bound radioactivity was separated by filtration through polyethyleneimine-treated GF/B filters (Perkin Elmer). The filters were washed eight times with ice-cold Tris-HCl (50 mM, pH 7.5), and radioactivity retained on the filters was measured by liquid scintillation counting. The binding data were evaluated with Prism. […]
row,inhibition at 1 µM,Compound
1,78%,"CC1Cc2ccc(-c3ccc(C(=O)N(C)C)nc3)cc2CN1c1cc(N2CCN(C)CC2)nc(N)n1 (single isomer, unassigned) [Example 50 B, 5-(2-(2-amino-6-(4-methylpiperazin-1-yl)pyrimidin-4-yl)-3-methyl-1,2,3,4-tetrahydroisoquinolin-7-yl)-N,N-dimetitylpicolinamide]"
2,65%,"CC1Cc2ccc(-c3ccc(C(=O)N4CCCC4)nc3)cc2CN1c1cc(N2CCN(C)CC2)nc(N)n1 (single isomer, unassigned) [Example 55B, 4-(4-methylpiperazin-1-yl)-6-[3-methyl-7-[6-(pyrrolidin-1-ylcarbonyl)pyridin-3-yl]-3,4-dihydroisoquinolin-2(1H)-yl]pyrimidin-2-amine]"

# Same assay, conditions: histamine H4 receptor; "> a" = exceeds experiment limit
row,Compound,IC50
1,"CNC(=O)c1ccc(-c2ccc3c(c2)CN(c2cc(N4CCN(C)CC4)nc(N)n2)C(C)C3)cn1 (single isomer, unassigned) [Example 49A]",0.045 µM
2,"CNC(=O)c1ccc(-c2ccc3c(c2)CN(c2cc(N4CCN(C)CC4)nc(N)n2)C(C)C3)cn1 (single isomer, unassigned) [Example 49B, 5-{2-[2-amino-6-(4-methylpiperazin-1-yl)pyrimidin-4-yl]-3-methyl-1,2,3,4-tetrahydroisoquinolin-7-yl}-N-methylpyridine-2-carboxamide]",0.038 µM
3,"CC1Cc2ccc(-c3ccc(C(=O)N(C)C)nc3)cc2CN1c1cc(N2CCN(C)CC2)nc(N)n1 (single isomer, unassigned) [Example 50A, 5-(2-(2-amino-6-(4-methylpiperazin-1-yl)pyrimidin-4-yl)-3-methyl-1,2,3,4-tetrahydroisoquinolin-7-yl)-N,N-dimethylpicolinamide]",0.0887 µM
4,"CC1Cc2ccc(-c3ccc(C(=O)N[C@H](C)CO)nc3)cc2CN1c1cc(N2CCN(C)CC2)nc(N)n1 (single isomer, unassigned) [Example 51A]",0.075 µM
5,"CC1Cc2ccc(-c3ccc(C(=O)N[C@H](C)CO)nc3)cc2CN1c1cc(N2CCN(C)CC2)nc(N)n1 (single isomer, unassigned) [Example 51B]",0.063 µM
6,"CC1Cc2ccc(-c3ccc(C(=O)N(C)CCN(C)C)nc3)cc2CN1c1cc(N2CCN(C)CC2)nc(N)n1 (single isomer, unassigned) [Example 52A, 5-{2-[2-amino-6-(4-methylpiperazin-1-yl)pyrimidin-4-yl]-3-methyl-1,2,3,4-tetrahydroisoquinolin-7-yl}-N-[2-(dimethylamino)ethyl]-N-methylpyridine-2-carboxoynide]",0.046 µM
7,"CC1Cc2ccc(-c3ccc(C(=O)N4CCC4)nc3)cc2CN1c1cc(N2CCN(C)CC2)nc(N)n1 (single isomer, unassigned) [Example 53A, 4-[7-[6-(azetidin-1-ylcarbonyl)pyridin-3-yl]-3-methyl-3,4-dihydroLsoquinolin-2(1H)-yl]-6-(4-methylpiperazin-1-yl)pyrimidin-2-amine]",0.201 µM
8,"CC1Cc2ccc(-c3ccc(C(=O)N4CCC4)nc3)cc2CN1c1cc(N2CCN(C)CC2)nc(N)n1 (single isomer, unassigned) [Example 53B, 4-[7-[6-(azetidin-1-ylcarbonyl)pyridin-3-yl]-3-methyl-3,4-dihydroisoquinolin-2(1H)-yl]-6-(4-methylpiperazin-1-yl)pyrimidin-2-amine]",0.176 µM
9,"CC1Cc2ccc(-c3ccc(C(=O)N4CC(C#N)C4)nc3)cc2CN1c1cc(N2CCN(C)CC2)nc(N)n1 (single isomer, unassigned) [Example 54A, 1-[(5-{2-[2-amino-6-(4-methylpiperazin-1-yl)pyrimidin-4-yl]-3-methyl-1,2,3,4-tetrahydroisoquinolin-7-yl}pyridin-2-yl)carbonyl]azetidine-3-carbonitrile]",0.099 µM
10,"CC1Cc2ccc(-c3ccc(C(=O)N4CC(C#N)C4)nc3)cc2CN1c1cc(N2CCN(C)CC2)nc(N)n1 (single isomer, unassigned) [Example 54B, 1-[(5-{2-[2-amino-6-(4-methylpiperazin-1-yl)pyrimidin-4-yl]-3-methyl-1,2,3,4-tetrahydroisoquinolin-7-yl}pyridin-2-yl)carbonyl]azetidine-3-carbonitrile]",0.048 µM

# The next lines start with the values.
row,IC50,Compound
1,0.095 µM,"CC1Cc2ccc(-c3ccc(C(=O)N4CCCC4)nc3)cc2CN1c1cc(N2CCN(C)CC2)nc(N)n1 (single isomer, unassigned) [Example 55A]"
2,0.085 µM,"CC1Cc2ccc(-c3ccc(C(=O)N4CC[C@@H](O)C4)nc3)cc2CN1c1cc(N2CCN(C)CC2)nc(N)n1 (single isomer, unassigned) [Example 56A]"
3,0.172 µM,"CC1Cc2ccc(-c3ccc(C(=O)N4CC[C@@H](O)C4)nc3)cc2CN1c1cc(N2CCN(C)CC2)nc(N)n1 (single isomer, unassigned) [Example 56B]"
4,0.13 µM,"CC1Cc2ccc(-c3ccc(C(=O)N4CC(O)C4)nc3)cc2CN1c1cc(N2CCN(C)CC2)nc(N)n1 (single isomer, unassigned) [Example 60, 1-[(5-{2-[2-Amino-6-(4-methylpiperazin-1-yl)pyrimidin-4-yl]-3-methyl-1,2,3,4-tetrahydroisoquinolin-7-yl}pyridin-2-yl)carbonyl]azetidin-3-ol]"
5,0.11 µM,"CC1Cc2ccc(-c3ccnc(C(=O)N(C)C)c3)cc2CN1c1cc(N2CCN(C)CC2)nc(N)n1 (single isomer, unassigned) [Example 61A, 4-{2-[2-amino-6-(4-methylpiperazin-1-yl)pyrimidin-4-yl]-3-methyl-1,2,3,4-tetrahydroisoquinolin-7-yl}-N,N-dimethylpyridine-2-carboxamide]"
6,0.064 µM,"CC1Cc2ccc(-c3ccnc(C(=O)N(C)C)c3)cc2CN1c1cc(N2CCN(C)CC2)nc(N)n1 (single isomer, unassigned) [Example 61B, 4-{2-[2-amino-6-(4-methylpiperazin-1-yl)pyrimidin-4-yl]-3-methyl-1,2,3,4-tetrahydroisoquinolin-7-yl}-N,N-dimethylpyridine-2-carboxamide]"
7,0.046 µM,"CC1Cc2ccc(-c3ccnc(C(=O)N4CCC4)c3)cc2CN1c1cc(N2CCN(C)CC2)nc(N)n1 (single isomer, unassigned) [Example 62A, 4-[7-[2-(azetidin-1-ylcarbonyl)pyridin-4-yl]-3-methyl-3,4-dihydroisoquinolin-2 (1H)-yl]-6-(4-methylpiperazin-1-yl)pyrimidin-2-amine]"
8,0.049 µM,"CC1Cc2ccc(-c3ccnc(C(=O)N4CCC4)c3)cc2CN1c1cc(N2CCN(C)CC2)nc(N)n1 (single isomer, unassigned) [Example 62B, 4-[7-[2-(azetidin-1-ylcarbonyl)pyridin-4-yl]-3-methyl-3,4-dihydroisoquinolin-2(1H)-yl]-6-(4-methylpiperazin-1-yl)pyrimidin-2-amine]"
9,0.044 µM,"CC1Cc2ccc(-c3ccnc(C(=O)N4CC(C#N)C4)c3)cc2CN1c1cc(N2CCN(C)CC2)nc(N)n1 (single isomer, unassigned) [Example 63A, 1-[(4-{2-[2-amino-6-(4-methylpiperazin-1-yl)pyrimidin-4-yl]-3-methyl-1,2,3,4-tetrahydroisoquinolin-7-yl}pyridin-2-yl)carbonyl]azetidine-3-carbonitrile]"

# — US20130244999A1, “Substituted Heterocyclic Compounds” (Incyte Corporation, priority 2008, published 2013)
